In patent US20240114940A1, “SACCHARIDE COMPOSITIONS HAVING SUCROSE-LIKE CHARACTERISTICS AND RELATED METHODS” (priority 2021, published 2024):

Experiments:
Type in all cases: physicochemical
[1] = Furfural and 5-hydroxymethylfurfural in headspace of heated solutions; details: solutions in water
Procedure: The solutions were rapidly heated to set temperatures and held at temperature for 5 min. After 5 min, the samples were rapidly cooled. […] (FIG. 18). The data is also plotted in FIG. 18 until 180° C.

[2] = Non-enzymatic breakdown products in confectionery mixtures (milk, butter, saccharides); details: final confectionery mixture
[3] = Breakdown products by GCMS after Maillard reaction in the presence of Histidine; details: 160° C.
Procedure: (§1) Controls were prepared addition of 1 mL of pH 7 buffer to the amino acids. The samples were rapidly heated to 160° C. and held at this temperature for 10 min. Samples were rapidly cooled afterwards, and absorbance at 500 nm was measured for each reaction mixture. Volatiles were analysed using gas chromatography mass spectrometry (GCMS) analysis. An Agilent Technologies 5975B Inert XL MSD gas chromatography, single quadruple mass spectrometer was used for analysis of volatiles. Samples were added to separate GCMS headspace vials and weighed. 0.03 g of 0.01% 3-heptanone in water was added and the vial was sealed for GCMS solid phase micro extraction (SPME) analysis. Samples were analysed in a randomized order. Samples were incubated and agitated at 250 RPM, at 60° C. for 15 min prior to SPME analysis of volatiles. The SPME fibre (50/30 DVB/CAR/PDMS, 23 Ga) extracted for 10 min, then thermally desorbed at 250° C. for 5 min. A 30 m×0.25 mm×0.25 μm HP-5MS column was used (Phenomenex, UK). Oven temperature settings: 31° C.-5 min, 5° C./min to 150° C., 30° C./min to 240° C. Inlet settings: 250° C., pressure 10.4 psi, flow 11.2 mL/min, split ratio 7:1. MS operated in full scan mode from 40 to 400 m/z with a scan time of 0.2s. The peak area of the aroma compounds was compared to the peak of the internal standard 3-heptanone and corrected for the weight of the sample.
(§2) The concentration of the different classes of Maillard reaction breakdown products is presented in Tables 9B-E. The same data as Tables 9B-E is also presented in FIG. 27. Concentrations are in parts per billion of the difference non-enzymatic breakdown products for the different compositions at 160° C. analysed by GCMS.

[4] = Breakdown products by GCMS after Maillard reaction in the presence of Leucine; details: 160° C.
Procedure: as §1, §2

[5] = Breakdown products by GCMS without an amino acid present; details: pH 7, 160° C., 10 min
Procedure: as §1, §2

[6] = Heating in a closed system (sealed microwave reactor tubes, 2 min), saccharides by ion-exchange chromatography; details: acidic conditions (pH 3 buffer), 177° C.
[7] = Breakdown products by GCMS after Maillard reaction in the presence of Tryptophan; details: with Tryptophan, pH 7, 160° C., 10 min
Procedure: as §1, §2

[8] = pH and absorbance at 420 nm of closed-system heated solutions
[9] = Carbonyls/ketones, Maillard reaction in the presence of Leucine, GCMS
[10] = Furans, Maillard reaction in the presence of Leucine, GCMS
[11] = Pyrazines, Maillard reaction in the presence of Leucine, GCMS

OC[C@H]1O[C@@](CO)(O[C@H]2O[C@H](CO)[C@@H](O)[C@H](O)[C@H]2O)[C@@H](O)[C@@H]1O [Sucrose]
temperature at which HMF concentration increased [1]: 180 °C
Concentration of 3-methyl-3-(2-oxopropylamino)butan-2-one [2]: 0.00 ppb
Concentration of Acetic acid [2]: 0.01 ppb
Concentration of Benzaldehyde [2]: 0.13 ppb
Concentration of Furfural [2]: 0.01 ppb
Concentration of Isovaleraldehyde [2]: 0.17 ppb
2-Butanone concentration ([3]; Carbonyls/ketones): 1.44 ppb
2-Propanone, 1-hydroxy- concentration ([3]; Carbonyls/ketones): 14.57 ppb
Diacetyl (2,3-Butanedione) concentration ([3]; Carbonyls/ketones): 1.62 ppb
Furan, 2-methyl- concentration ([3]; Furans): 0 ppb
Furfural concentration ([3]; Furans): 0.03 ppb
Pyrazine, 2,5-diethyl- concentration ([3]; Pyrazines): 0.48 ppb
Pyrazine, 2,5-dimethyl- concentration ([3]; Pyrazines): 175.23 ppb
Pyrazine, 2-ethyl-5-methyl- concentration ([3]; Pyrazines): 34.95 ppb
Pyrazine, ethyl- concentration ([3]; Pyrazines): 0.14 ppb
Pyrazine, methyl- concentration ([3]; Pyrazines): 0 ppb
2-Butanone concentration [4, 9]: 9.73 ppb
2-Propanone, 1-hydroxy- concentration [4, 9]: 45.73 ppb
Diacetyl (2,3-Butanedione) concentration [4, 9]: 41.79 ppb
Furan, 2-methyl- concentration [4, 10]: 0.42 ppb
Furfural concentration [4, 10]: 0.16 ppb
Pyrazine, 2,5-diethyl- concentration [4, 11]: 24.28 ppb
Pyrazine, 2,5-dimethyl- concentration [4, 11]: 2111.75 ppb
Pyrazine, 2-ethyl-5-methyl- concentration [4, 11]: 554.43 ppb
Pyrazine, ethyl- concentration [4, 11]: 8.8 ppb
Pyrazine, methyl- concentration [4, 11]: 20.49 ppb
Isovaleraldehyde (Butanal, 3-methyl-) concentration ([4]; Strecker aldehydes, Maillard reaction in the presence of Leucine, GCMS): 3412.25 ppb
Isovaleraldehyde concentration ([4]; with leucine): 3400 ppb
Concentration of 2-Butanone [5]: 178.52 ppb
Concentration of 2-Propanone, 1-hydroxy- [5]: 96.48 ppb
Concentration of 5-methyl furfural [5]: 0 ppb
Concentration of Diacetyl (2,3-Butanedione) [5]: 245.45 ppb
Concentration of Furan, 2-methyl- [5]: 0 ppb
Concentration of Furfural [5]: 1.42 ppb
sucrose degraded [6]: around 85%
Concentration of 2-Butanone [7]: 3.16 ppb
Concentration of 2-Propanone, 1-hydroxy- [7]: 20.48 ppb
Concentration of Diacetyl (2,3-Butanedione) [7]: 6.99 ppb
Concentration of Furan, 2-methyl- [7]: 0.25 ppb
Concentration of Furan, 2-pentyl- [7]: 0.03 ppb
Concentration of Furfural [7]: 0.03 ppb
Concentration of Indole [7]: 20.81 ppb
Concentration of Pyrazine, 2,5-diethyl- [7]: 5.74 ppb
Concentration of Pyrazine, 2,5-dimethyl- [7]: 778.85 ppb
Concentration of Pyrazine, 2-ethyl-5-methyl- [7]: 201.9 ppb
Concentration of Pyrazine, ethyl- [7]: 0.19 ppb
Concentration of Pyrazine, methyl- [7]: 0.56 ppb
A420 after heating to 177° C. ([8]; samples labelled as pH 3): 0.089
A420 before heating ([8]; samples labelled as pH 3): 0.082
pH after heating to 177° C. ([8]; samples labelled as pH 3): 3.08
pH before heating ([8]; samples labelled as pH 3): 3
A420 after heating to 110° C. ([8]; samples labelled as pH 7): 0.086
A420 before heating ([8]; samples labelled as pH 7): 0.115
pH after heating to 110° C. ([8]; samples labelled as pH 7): 6.88
pH after heating to 177° C. ([8]; samples labelled as pH 7): 6.84
pH before heating ([8]; samples labelled as pH 7): 6.78
A420 before heating ([8]; samples labelled as pH 9): 0.087
pH after heating 177° C. ([8]; samples labelled as pH 9): 8.14
pH before heating ([8]; samples labelled as pH 9): 8.76
